The results in this text go back to US20250115583A1, “BICYCLIC INDAZOLE GLUCOCORTICOID RECEPTOR ANTAGONISTS” (Corcept Therapeutics Incorporated, priority 2021, published 2025).

The target in the test is glucocorticoid receptor (Homo sapiens (Human), UniProt P04150). The test is described as follows: HepG2 TAT assay: inhibition of dexamethasone-induced tyrosine aminotransferase (TAT) activity. Particulars: HepG2 cells, challenge of 100 nM dexamethasone, 18-24 hr; IC50 converted to Ki by Cheng and Prusoff equation. The format is cell-based. In a few lines:
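Cells lysed 15 min at 4 °C; TAT enzyme reaction 2 h at 37 °C, stopped with KOH, 30 min further at 37 °C. Inhibition fitted to 4-parameter logistic.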

glucocorticoid receptor, sequence (P04150 whole entry): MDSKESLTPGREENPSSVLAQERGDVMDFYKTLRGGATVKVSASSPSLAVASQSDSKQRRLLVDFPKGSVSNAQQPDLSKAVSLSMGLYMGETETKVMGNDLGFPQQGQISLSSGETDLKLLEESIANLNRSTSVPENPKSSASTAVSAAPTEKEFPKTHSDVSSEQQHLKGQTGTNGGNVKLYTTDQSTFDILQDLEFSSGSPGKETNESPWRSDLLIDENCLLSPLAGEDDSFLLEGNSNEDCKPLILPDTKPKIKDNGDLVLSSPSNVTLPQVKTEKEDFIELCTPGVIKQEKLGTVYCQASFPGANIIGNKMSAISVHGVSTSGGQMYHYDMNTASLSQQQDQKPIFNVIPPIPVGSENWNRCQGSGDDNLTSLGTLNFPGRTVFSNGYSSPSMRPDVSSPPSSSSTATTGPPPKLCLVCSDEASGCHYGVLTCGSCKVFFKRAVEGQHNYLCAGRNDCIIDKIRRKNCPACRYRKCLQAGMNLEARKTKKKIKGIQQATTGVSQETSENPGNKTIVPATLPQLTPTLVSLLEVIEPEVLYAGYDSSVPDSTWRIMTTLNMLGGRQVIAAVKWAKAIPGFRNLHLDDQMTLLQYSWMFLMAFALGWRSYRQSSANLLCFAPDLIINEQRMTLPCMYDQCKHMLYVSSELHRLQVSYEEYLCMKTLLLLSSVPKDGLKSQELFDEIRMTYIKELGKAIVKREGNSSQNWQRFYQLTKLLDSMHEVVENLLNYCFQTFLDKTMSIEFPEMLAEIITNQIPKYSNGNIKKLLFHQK

`Cc1cc2c(cnn2-c2ccc(F)cc2)cc1[C@]12CN(S(=O)(=O)c3cnn(C(C)C)n3)C[C@H]1[C@@H]2c1ccccc1` [Example 80] returned a Ki of 23 nM.

As to `CCNC(=O)[C@@H]1[C@H]2CN(S(=O)(=O)c3cnn(C)n3)C[C@]21c1cc2cnn(-c3ccc(F)cc3)c2cc1C` [Example 65], the Ki worked out at 430 nM. This Ki is about 19-fold higher than that of the molecule before. Consider `CO[C@]1(c2ccccc2)C[C@@H]2CN(S(=O)(=O)c3cncc(F)c3)C[C@]2(c2cc3cnn(-c4ccc(F)cc4)c3cc2C)C1` [Example 25], for which affinity was put at a Ki of 52 nM.

In the case of `Cc1cc2c(cnn2-c2ccc(F)cc2)cc1[C@]12CN(C(=O)c3cnnn3C)C[C@H]1[C@@H]2c1ccccc1` [Example 144, (1-(1-(4-fluorophenyl)-6-methyl-1H-indazol-5-yl)-6-phenyl-3-azabicyclo[3.1.0]hexan-3-yl)(1-methyl-1H-l,2,3-triazol-5-yl)methanone], the Ki worked out at 120 nM. Regarding `CCCn1cc(S(=O)(=O)N2CC3CC(Oc4ccccc4)CC3(c3cc4cnn(-c5ccc(F)cc5)c4cc3C)C2)cn1` (stereo not drawn) [Example 43], the Ki turned out to be 41 nM. This Ki is about 2.9-fold lower than that of the molecule before. For `Cc1cc2c(cnn2-c2ccc(F)cc2)cc1[C@@]12CN(C(=O)c3ccccn3)C[C@@H]1[C@H]2c1ccccc1` (stereo in doubt) [Example 116, (1-(1-(4-fluorophenyl)-6-methyl-1H-indazol-5-yl)-6-phenyl-3-azabicyclo[3.1.0]hexan-3-yl)(pyridin-2-yl)methanone] the value was 31 nM; for `Cc1cc2c(cnn2-c2ccc(F)cc2)cc1[C@@]12CN(C(=O)c3ccccc3)C[C@@H]1[C@H]2Cc1ccccc1` (stereo in doubt) [Example 184, (6-benzyl-1-(1-(4-fluorophenyl)-6-methyl-1H-indazol-5-yl)-3-azabicyclo[3.1.0]hexan-3-yl)(phenyl)methanone], 860 nM.

Turning to `Cc1cc2c(cnn2-c2ccc(F)cc2)cc1[C@]12CN(C(=O)c3ccccc3)C[C@H]1[C@H]2c1ccccn1` (stereo in doubt) [Example 186, (1-(1-(4-fluorophenyl)-6-methyl-1H-indazol-5-yl)-6-(pyridin-2-yl)-3-azabicyclo[3.1.0]hexan-3-yl)(phenyl)methanone], the affinity corresponds to a Ki of 630 nM. Regarding `Cc1cc2c(cnn2-c2ccc(F)cc2)cc1C12CN(S(=O)(=O)c3cnn(C)n3)CC1C2COc1ccc(Cl)cc1` (single isomer, unassigned) [Example 52, 5-(6-((4-chlorophenoxy)methyl)-3-((2-methyl-2H-1,2,3-triazol-4-yl)sulfonyl)-3-azabicyclo[3.1.0]hexan-1-yl)-1-(4-fluorophenyl)-6-methyl-1H-indazole], the affinity corresponds to a Ki of 380 nM. The figure for `Cc1cc2c(cnn2-c2ccc(F)cc2)cc1[C@@]12CN(C(=O)c3cc(C)n(C)n3)C[C@@H]1[C@H]2c1ccccc1` (stereo in doubt) [Example 177, (1,5-dimethyl-1H-pyrazol-3-yl)(1-(1-(4-fluorophenyl)-6-methyl-1H-indazol-5-yl)-6-phenyl-3-azabicyclo[3.1.0]hexan-3-yl)methanone] is 23 nM; for `COC1(c2cccc(C)c2)CC2CN(S(=O)(=O)c3cnn(C)c3)CC2(c2cc3cnn(-c4ccc(F)cc4)c3cc2C)C1` (stereo not drawn) [Example 14] it is 110 nM. For `Cc1cc2c(cnn2-c2ccc(F)cc2)cc1[C@@]12CN(C(=O)c3ncccn3)C[C@@H]1[C@H]2c1ccccc1` (stereo in doubt) [Example 171, (1-(1-(4-fluorophenyl)-6-methyl-1H-indazol-5-yl)-6-phenyl-3-azabicyclo[3.1.0]hexan-3-yl)(pyrimidin-2-yl)methanone] the value was 36 nM; for `Cc1cc2c(cnn2-c2ccc(F)cc2)cc1[C@@]12CN(C(=O)c3ncccc3C)C[C@@H]1[C@H]2c1ccccc1` (stereo in doubt) [Example 162, (1-(1-(4-fluorophenyl)-6-methyl-1H-indazol-5-yl)-6-phenyl-3-azabicyclo[3.1.0]hexan-3-yl)(3-methylpyridin-2-yl)methanone], 29 nM. For `Cc1cc2c(cnn2-c2ccc(F)cc2)cc1[C@]12CN(S(=O)(=O)c3cnn(C)c3)C[C@H]1[C@@H]2c1ccccc1` [Example 73] the value was 36 nM; for `Cc1cc2c(cnn2-c2ccc(F)cc2)cc1C12CN(S(=O)(=O)c3cnn(C)c3)CC1CC(O)(c1ccccc1)C2` (stereo not drawn) [Example 10, 3a-(1-(4-fluorophenyl)-6-methyl-1H-indazol-5-yl)-2-((1-methyl-1H-pyrazol-4-yl)sulfonyl)-5-phenyloctahydrocyclopenta[c]pyrrol-5-ol], 220 nM.

For `Cc1cc2c(cnn2-c2ccc(F)cc2)cc1[C@@]12CN(C(=O)c3ccccc3)C[C@@H]1[C@]2(C)c1ccccc1` (stereo in doubt) [Example 182, (1-(1-(4-fluorophenyl)-6-methyl-1H-indazol-5-yl)-6-methyl-6-phenyl-3-azabicyclo[3.1.0]hexan-3-yl)(phenyl)methanone], the affinity, expressed as Ki, was 180 nM. This Ki and that of the molecule before are within 1.5-fold of each other. Regarding `COC1(c2nccs2)CC2CN(S(=O)(=O)c3cnn(C)c3)CC2(c2cc3cnn(-c4ccc(F)cc4)c3cc2C)C1` (stereo not drawn) [Example 3, 2-(3a-(1-(4-fluorophenyl)-6-methyl-1H-indazol-5-yl)-5-methoxy-2-((1-methyl-1H-pyrazol-4-yl)sulfonyl)octahydrocyclopenta[c]pyrrol-5-yl)thiazole], the affinity, expressed as Ki, was 290 nM. Consider `CCCn1ncc(S(=O)(=O)N2CC3CC(OC)(c4ccccc4)CC3(c3cc4cnn(-c5ccc(F)cc5)c4cc3C)C2)n1` (stereo not drawn) [Example 27], for which the Ki came out at 78 nM. Compared with the last molecule, the Ki is about 3.7-fold lower. The figure for `Cc1cc2c(cnn2-c2ccc(F)cc2)cc1C12CC(Oc3cccnc3)CC1CN(S(C)(=O)=O)C2` (stereo not drawn) [Example 42] is 260 nM; for `Cc1cc2c(cnn2-c2ccc(F)cc2)cc1C12CC(Oc3ccccc3)CC1CN(C(=O)OC(C)(C)C)C2` (stereo not drawn) [Example 45] it is 96 nM. `COC1(c2ccccc2)CC2CN(C(=O)OC(C)(C)C)CC2(c2cc3cnn(-c4ccc(F)cc4)c3cc2C)C1` (stereo not drawn) [Example 18, tert-butyl 3a-(1-(4-fluorophenyl)-6-methyl-1H-indazol-5-yl)-5-methoxy-5-phenylhexahydrocyclopenta[c]pyrrole-2(1H)-carboxylate] yielded a Ki of 44 nM. This Ki lies about 2.2-fold lower than the previous one. The figure for `Cc1cc2c(cnn2-c2ccc(F)cc2)cc1C12CC(Oc3ccccc3)CC1CN(S(=O)(=O)c1cnn(C)c1)C2` (stereo not drawn) [Example 44] is 370 nM; for `Cc1cc2c(cnn2-c2ccc(F)cc2)cc1C12CC(OCc3ccccc3)CC1CN(C(=O)OC(C)(C)C)C2` (stereo not drawn) [Example 35, tert-butyl 5-(benzyloxy)-3a-(1-(4-fluorophenyl)-6-methyl-1H-indazol-5-yl)hexahydrocyclopenta[c]pyrrole-2(1H)-carboxylate] it is 160 nM; for `CO[C@]1(c2ccccc2)C[C@@H]2CN(C(C)=O)C[C@]2(c2cc3cnn(-c4ccc(F)cc4)c3cc2C)C1` [Example 33] it is 220 nM. The molecule `CCCn1ncc(S(=O)(=O)N2C[C@H]3[C@H](c4ccccc4)[C@@]3(c3cc4cnn(-c5ccc(F)cc5)c4cc3C)C2)n1` [Example 75] returned a Ki of 25 nM.

In turn, `Cc1cc2c(cnn2-c2ccc(F)cc2)cc1[C@@]12CN(S(=O)(=O)c3ccn(C)n3)C[C@@H]1[C@H]2c1ccccc1` (single isomer, unassigned) [Example 76] came in with a Ki of 9.4 nM. This Ki is about 2.7-fold lower than that of the molecule before. Molecule `COC1(c2ccccc2)CC2CN(S(C)(=O)=O)CC2(c2cc3cnn(-c4ccc(F)cc4)c3cc2C)C1` (stereo not drawn) [Example 13] showed an inhibition constant Ki of 78 nM. Against the preceding molecule, the Ki is about 8.3-fold higher.

By Ki is commonly meant a measure of affinity in units of concentration, obtained from inhibition or displacement. Low values mean tighter binding, high ones weaker binding.
